Reference: patent publication US8591908B2, “Immunogen for preparation of therapeutic vaccines or drugs for treatment of hepatitis B and the producing method and use thereof” (Institute of Immunology, PLA, priority 2002, dated 2013)
Ends that are not written are not given here. * marks the point of attachment. Palmitoyl = CCCCCCCCCCCCCCCC(=O)*; Lauroyl = CCCCCCCCCCCC(=O)*

Assays:
[1] = test system: 2215, E6 and T2 target cells; test: FIG. 4: induced CTL cytotoxicity, 51Cr release test; type: cell-based, human; settings: 10 ng test drug; E/T 12.5, 25, 50, 100
Protocol: (§1) FIG. 4 indicated the effect of inducing cytotoxicity. […] Three days after the last stimulation, antigen-specific effector CTL cells were obtained, and their cytotoxic activities were measured by the standard ^51Cr release test and compared. […] Twenty-four hours after the last stimulation to HLA-A2+ human PBMC, the effects of the test drug to induce the proliferating INF-γ secreting CTL cells in peripheral blood lymphocytes were measured in the ELISPOT method and compared.

HLA-A2+ human PBMC = test: FIG. 4: IFN-γ secreting CTL cells, ELISPOT; type: cell-based; settings: 24 h after last stimulation
Protocol: as §1

[2] = test system: PBMCs from hepatitis B patient; test: Lymphocyte activation (Th1/Th2) of PBMCs from hepatitis B patient; type: cell-based, human; settings: IL-4, IL-10, IFN-γ in culture supernatants, acute and chronic hepatitis
From the text: Acute and chronic hepatitis blank control groups, acute hepatitis+/test drug group and chronic hepatitis+/test drug group were included to test the Th1/Th2 activation by Endogen kit or EELISPOT method.

Balb/c mice = test: ELISPOT test of induced cytotoxicity in immunized mice; type: in vivo; settings: IFN-γ ELISPOT of PBMC
From the text: Balb/c mice of 2-3 Months old (both male and female) were divided into 8 groups, and were immunized with the present compound at both postpede palmas once a week for three times at different doses: 0.001 nmol, 0.01 nmol, 0.1 nmol, 0.5 nmol, 1 nmol, 10 nmol, 20 nmol, and 40 nmol respectively. Bloods were taken postorbitally from mice under sterile conditions on the 6th, 12th, 18th and 24th day after the end of immunization respectively and were anticoagulatant-treated. PBMCs were isolated by Ficoll-Hypaque method, and were cultured in RPMI1640 culture media (containing 10% calf serum, and 100μ/ml penicillin-streptomycin) (10^6/ml, 96-well culture plate) in vitro for one day. After they returned to the original growth state, they were used as test cells. ELISPOT 96-well cell culture plate was pre-coated with IFN-γ coating antibody overnight, each well was treated in triplicate. The wells were blocked with RPMI1640 containing 5% calf serum at room temperature for 1 hour. After drying in air, test cells were added (5×10^4 cells/100 μl/well, containing RPMI1640 media, 10% calf serum, 100μ/ml myciline, and 1 μg/ml peptide), wherein the PBMC of mice immunized with melan A27-35 peptide were set as negative control. […] Then the plate was washed again and dried in air, the substrate was added for visualization and the number of spots was counted.

[3] = test system: PBMCs from acute hepatitis B patient in convalescent phase; test: Proliferation of lymphocytes in PBMC of acute hepatitis B patient, 3H-TdR; type: cell-based, human; settings: 0.1 μg, 1 μg and 10 μg/ml with IL-2
Protocol: Anticoagulant peripheral blood was collected aseptically from acute hepatitis B patient in convalescent phase, PBMCs were isolated by conventional Ficoll-Hypaque density gradient centrifugation and were cultured in RPMI1640 cultural media (containing 10% calf serum, 100 u/ml penicillin-streptomycin, L-glutamine) in vitro on 24-well cell culture plate at a concentration of 10^6/ml. Blank control group, test group, and Pre-S (2) control group were included. IL-2 (30 IU/ml) and test drug (0.1 μg/ml, 1 μg/ml, 10 μg/ml) were separately added into the wells. After the cells were cultured for 6 days, IL-2 and the test drug were added at the same doses to stimulate the cells again. Then 3H-TdR (1 uCi/ml) was added and further cultured for 18 hours. The cells were collected and tested by liquid scintillation.

Question: Which results are given for “CH3(CH2)7CH═CH(CH2)—CO, CH3CH2CH═CHCH2CH═CH(CH2)7CO7KSSQYIKANSKFIGITEGGGDPRVRGLYFPA (not fully specified (N-terminus); printed as CH3(CH2)7CH═CH(CH2)—CO, CH3CH2CH═CHCH2CH═CH(CH2)7CO7KSSQYIKANSKFIGITEGGGDPRVRGLYFPA) [SEQ ID NO:3]”?
Answer: CTL effect, lysis of target cells [1]: induce the CTL effect in human PBMC, and specifically lyzed and destroyed target cells; proliferation of IFN-γ secreting cells (HLA-A2+ human PBMC): induce the proliferation of IFN-γ secreting cells in human PBMC in a notable dose-effect dependence relation

Question: Which “conversion of T-lymphocytes into Th1/Th2 type” value [2] does the source give for “CH3(CH2)10COKSSPADREGGGSLNFLGGTTVSSSDPRVRGLYFPA (Lauroyl-KSSPADREGGGSLNFLGGTTVSSSDPRVRGLYFPA) [SEQ ID NO:50]” here?
Answer: induce the conversion of T-lymphocytes into both Th1 and Th2 types, with the conversion into Th1 type the most obvious

Question: “CH3(CH2)14COKSSPADREAAAFLPSDFFPSVGGGDPRVRGLYFPA (Palmitoyl-KSSPADREAAAFLPSDFFPSVGGGDPRVRGLYFPA) [SEQ ID NO:56]” was tested. Which minimum effective dose (Balb/c mice) did it give?
Answer: 0.01 nmol

Question: How did the “proliferation of PBMCs” value [3] turn out when “CH3(CH2)14COKSSQYIKANSKFIGITEAAALLCLIFLLVGGGDPRVRGLYFPA (Palmitoyl-KSSQYIKANSKFIGITEAAALLCLIFLLVGGGDPRVRGLYFPA) [SEQ ID NO:51]” was run?
Answer: stimulated the proliferation of PBMCs from acute hepatitis B patient in convalescent phase in a manner of dose dependence
